Literature values in US20090062268A1, “NOVEL INHIBITORS OF POLY(ADP-RIBOSE)POLYMERASE (PARP)” (LEAD THERAPEUTICS, INC., priority 2007, published 2009).
Where two headings read alike, the source gives them in different places.

What was measured:
PARP-1 = PARP-1 (Homo sapiens, UniProt P09874); settings: Farmer et al., Nature 2005
[1] = test system: BRCA2-deficient cell line V-C8; settings: BRCA2-deficient V-C8 compared with the BRCA2 wild type control
CAPAN-1 cells = CAPAN-1 cells in DMEM with FCS (20% v/v), glutamine and antibiotics

Chain of PARP-1 (P09874 whole entry, species assumed): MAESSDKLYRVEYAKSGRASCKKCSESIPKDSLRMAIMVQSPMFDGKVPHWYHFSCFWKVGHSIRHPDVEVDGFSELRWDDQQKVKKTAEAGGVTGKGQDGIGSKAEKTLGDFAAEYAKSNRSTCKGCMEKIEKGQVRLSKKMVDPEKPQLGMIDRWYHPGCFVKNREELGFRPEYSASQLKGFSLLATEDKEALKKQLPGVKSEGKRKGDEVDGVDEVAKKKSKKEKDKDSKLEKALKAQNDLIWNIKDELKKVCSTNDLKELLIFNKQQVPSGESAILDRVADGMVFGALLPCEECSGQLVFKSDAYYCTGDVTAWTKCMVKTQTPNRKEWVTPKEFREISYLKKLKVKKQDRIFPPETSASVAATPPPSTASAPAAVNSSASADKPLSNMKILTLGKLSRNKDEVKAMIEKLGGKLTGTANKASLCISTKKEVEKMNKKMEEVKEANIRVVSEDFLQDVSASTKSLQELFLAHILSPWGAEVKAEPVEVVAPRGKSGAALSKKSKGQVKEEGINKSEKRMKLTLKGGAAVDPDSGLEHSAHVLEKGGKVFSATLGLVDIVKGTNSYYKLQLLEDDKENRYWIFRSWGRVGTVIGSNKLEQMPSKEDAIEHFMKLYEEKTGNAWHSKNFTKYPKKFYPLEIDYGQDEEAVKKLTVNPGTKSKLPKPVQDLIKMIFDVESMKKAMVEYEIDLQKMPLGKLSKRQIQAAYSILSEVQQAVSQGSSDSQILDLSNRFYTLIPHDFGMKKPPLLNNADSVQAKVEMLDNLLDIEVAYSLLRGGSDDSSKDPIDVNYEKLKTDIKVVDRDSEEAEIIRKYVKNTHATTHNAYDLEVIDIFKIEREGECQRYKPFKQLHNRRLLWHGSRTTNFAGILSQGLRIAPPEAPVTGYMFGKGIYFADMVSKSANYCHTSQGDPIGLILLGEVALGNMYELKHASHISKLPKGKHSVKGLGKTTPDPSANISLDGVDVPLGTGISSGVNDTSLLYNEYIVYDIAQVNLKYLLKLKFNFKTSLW

Row | SMILES | Ki (PARP-1; PARP-1 inhibitor) [nM] | sensitivity in clonogenic survival assay [1] | in vivo efficacy, tumor growth (BRCA2-deficient tumors) | sensitivity to PARP inhibition in clonogenic survival assay (CAPAN-1 cells) | Ki (PARP-1; moderately potent PARP-1 inhibitor) [nM]
1 | CN(C)Cc1ccc(-c2nc3cccc4c3n2CCNC4=O)cc1 [AG14361] | 5 | exhibited sensitivity |  |  | 
2 | O=C1CCC(=O)N1c1cc(Cc2n[nH]c(=O)c3ccccc23)ccc1F [KU0058684] |  |  | in vivo efficacy in blocking the growth of BRCA2-deficient tumors | showing sensitivity | 
3 | Cc1nc2c(O)cccc2c(=O)[nH]1 [NU1025] |  | exhibited sensitivity |  |  | 50
